Values of other authors, collected in patent US7981441B2, “Drug delivery systems using mesoporous oxide films” (The Board of Trustees of the Leland Stanford Junior …, priority 2004, dated 2011).

Tests used:
[1] = 4 to six acrylate sleeves each loaded with 800 micrograms
[2] = test system: rabbit neointimal hyperplasia; settings: pLA/pCL copolymer-coated stents containing 200 μg of paclitaxel; months after stent implantation
[3] = test system: porcine neointimal hyperplasia; settings: bare stent, dip-coating; 0, 0.2, 15 and 187 μg/stent; at 4 weeks

Structure (SMILES) | clinical outcome of study [1] | effect on rabbit neointimal hyperplasia [2] | effect on porcine neointimal hyperplasia [3]
CCCCCC(=O)O[C@H]1C[C@H]2OC[C@@]2(OC(C)=O)[C@H]2[C@H](OC(=O)c3ccccc3)[C@]3(O)C[C@H](OC(=O)[C@H](O)[C@@H](NC(=O)c4ccccc4)c4ccccc4)C(C)=C([C@@H](OC(C)=O)C(=O)[C@]12C)C3(C)C [7-hexanoyltaxol] | clinically unpromising |  | 
CC(=O)O[C@H]1C(=O)[C@@]2(C)[C@H]([C@H](OC(=O)c3ccccc3)[C@]3(O)C[C@H](OC(=O)[C@H](O)[C@@H](NC(=O)c4ccccc4)c4ccccc4)C(C)=C1C3(C)C)[C@]1(OC(C)=O)CO[C@@H]1C[C@@H]2O [paclitaxel] |  | virtually abolished | significant dose-dependent inhibition
